{
  "source": "patent US10857112B2",
  "about": "“Small molecule inhibitors of RNA binding motif (RBM) proteins for the treatment of acute cellular injury” (University of Pittsburgh—Of the Commonwealth System of …, priority 2012, dated 2020)",
  "key": {"[1]": {"test_system": "Human derived myocardial heart cells", "test": "STS injury in human heart cells, viability (CellTiter Blue)", "format": "cell-based", "settings": "24 hour co-treatment; 500 nM or 1 μM STS, 125 μM AQ2S", "protocol": "Human derived myocardial heart cells were seeded onto 96-well plates. 24 hours later cells were injured with STS.\nOptimal cell death conditions were established in heart cells. Heart cells were treated with STS at increasing doses for 24 hours (FIG. 28A). […] Heart cells were treated with 500 nM STS+/−125 μM AQ2S or 1 μM STS+/−125 μM AQ2S for 24 hours. Cell viability was measured 24 hours later and expressed as relative fluorescent units (RFU). […] Data were analyzed by ANOVA (p<0.0001); Fisher LSD post-hoc test. * indicates p<0.05. Graphs show Mean+SEM."}, "[2]": {"target": "T1, RBM5 (Homo sapiens, UniProt P52756)", "T1 sequence (P52756 181-210 limits assumed)": "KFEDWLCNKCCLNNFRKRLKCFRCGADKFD", "settings": "cited from earlier work"}, "[3]": {"test_system": "AKT", "test": "Western blot of AKT activation (pAKT473)", "format": "cell-based, rat", "protocol": "AKT is a key pro-survival kinase that is dysregulated by acute brain injury. Many diverse therapies used to prevent neuronal death activate AKT, including small molecules, endogenously derived survival proteins, and other non-pharmacology based treatments like therapeutic hypothermia. To further elucidate the mechanisms of AQ2S-mediated neuroprotection, the level of activated (phosphorylated) AKT was measured by western blot.\n(§1) Neurons used for Western blot analysis for grown in 6-well plates. Briefly, neurons were treated with experimental compounds for the indicated time/conditions. At the end of each experiment, neurons were washed in ice cold PBS and harvested in 65 μL RIPA buffer containing protease inhibitors, phosphatase inhibitors, and EDTA. Extracts were collected in 0.5 mL tubes and sonicated for 20-30 seconds. Cell extracts were then spun at 4° C./16,000 g/10 minutes and stored at −80° C. until use. Frozen extracts were thawed on ice and protein concentration measured using the BCA assay (PIERCE). […] of sample protein was loaded per well of a 7.5% SDS precast gel (Biorad), and run for 30 minutes to 1 hour at 200 V. Kaleidoscope protein standards (Biorad) were run parallel to neuron extracts. Proteins were then transferred to PDVF membranes (run at 100 V/4° C./1.5 hours). PDVF membranes were washed once in tris buffered saline (TBS) and blocked for 1 hour in tris buffered saline/tween-20 with 7.5% nonfat milk (TBS-T/milk). Blots were incubated overnight at 4° C. with primary antibodies in TBS-T/milk. Cell Signaling Technology: phospho-AKT473, AKT Total, phospho-ERK1/2, ERK Total, cleavage caspase-3. Santa Cruz Antibodies: NF-κB p50 subunit, NF-κB p65 subunit, and beta actin. Calbiochem: 4-HNE antibody. Blots were washed 3 times (5 minutes each) with TBS, and incubated with secondary antibodies for 2 hours. Invitrogen: goat anti-rabbit or goat anti-mouse. Blots were washed 3 times (5 minutes each) with TBS, and incubated for 1 minute in HRP detection solution (Amersham). Films were exposed to blots and developed (SRX-101A, Konica Minolta Medical & Graphic Inc.). Re-probed blots (e.g. beta actin, AKT total, ERK total) were stripped in western blot stripping buffer (Fischer Scientific) for 10 minutes, washed once with TBS, re-blocked in TBS-T/milk for 1 hour, and incubated overnight with new primary antibody. Films were scanned (EPSON GT 20,000), and densitometry performed using UN-SCAN-IT software (Silk Scientific)."}, "[4]": {"test_system": "C57BL6 mice, severe CCI brain injury", "test": "Controlled cortical impact (TBI) injury, hippocampal volume", "format": "in vivo", "quoted_text": "AQ2S was prepared in 2% DMSO in PBS (i.e. vehicle). C57BL6 mice were administered a severe CCI brain injury. Severe brain trauma was induced by a pneumatic impactor device that delivers a defined cortical injury (impact depth, 1.6 mm; impact velocity, 5 m/s). 15 minutes after injury animals were given a 5 μL intracerebroventricular injection with either vehicle (n=7) or 500 μM AQ2S (n=7). The 5 μL injection volume was delivered at a rate of 0.5 μL/minute. […] A second vehicle or AQ2S injection was administered 24 hours after injury. […] 3 days after injury animals were sacrificed, perfused with a fixative, brains sectioned, and stained with hematoxylin and eosin (H&E). Images were captured using a light microscope and camera.\nMice were given surgical/treatment protocols and hippocampal tissue analyzed 3 days later. […] (D) Left (injured) and right (non-injured) hippocampal volumes were quantified for each mouse; sham (n=5), vehicle CCI injury (n=7), and AQ2S CCI injury (n=7). FIG. 23D show left hippocampal volumes (expressed as % of uninjured right hippocampus)."}, "[5]": {"test_system": "caspase-8", "test": "STS-induced caspase-8 activity in neurons", "format": "cell-based, rat", "settings": "150 nM STS 24 hours; co-treatment 75 μM"}, "[6]": {"target": "T2, recombinant active caspase-3 (Homo sapiens, UniProt P42574)", "T2 construct": "The reaction mixture was combined with recombinant active caspase-3 and a DEVD-AFC probe; purchased PromoKine (Heidelberg, Germany)", "T2 sequence (P42574 29-175 limits assumed)": "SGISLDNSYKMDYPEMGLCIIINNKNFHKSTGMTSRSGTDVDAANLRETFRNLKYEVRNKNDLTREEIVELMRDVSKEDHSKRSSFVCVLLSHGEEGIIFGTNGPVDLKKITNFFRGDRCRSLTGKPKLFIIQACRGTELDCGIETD", "T2 sequence (P42574 176-277 limits assumed)": "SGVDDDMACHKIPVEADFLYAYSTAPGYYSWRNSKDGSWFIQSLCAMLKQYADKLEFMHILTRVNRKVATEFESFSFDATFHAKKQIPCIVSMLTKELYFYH", "test": "In vitro cell-free caspase-3 drug screening assay (DEVD-AFC)", "format": "biochemical", "quoted_text": "An in vitro caspase drug screening kit was purchased from PromoKine (Heidelberg, Germany), and used according to the manufacturer's instructions. Briefly, all drugs were dissolved in DMSO and diluted in double-distilled water to desired concentration. The reaction mixture was combined with recombinant active caspase-3 and a DEVD-AFC probe. Active caspase-3 cleaves the DEVD-recognition sequence and releases fluorescent AFC. The amount of AFC detected is a measure of caspase-3 activity. Reactions were prepared in black-walled 96-well plates, incubated at 37° C., and AFC release measured with an AFC filter (Ex: 405 nm, Em: 495-505 nM) on a GLOMax-Multi Microplate Reader (Promega)."}, "[7]": {"test_system": "caspase-3", "test": "Western blot of cleaved caspase-3 and caspase-3 substrates after STS", "format": "cell-based, rat", "settings": "125 μM", "protocol": "Caspase-3 inhibition was confirmed by biochemical analysis. Protein samples harvested from neurons incubated with 125 μM AQ2S and 500 nM STS for 6 hours were run on western blot. Consistent with caspase-3 inhibition, cleaved (i.e., activated) capase-3 was reduced in AQ2S-treated neurons (FIG. 8D). Finally, the inhibition of caspase-3 by AQ2S was confirmed biochemically via western blot analysis of substrate cleavage products. Poly ADP ribose polymerase is a classic caspase-3 substrate. The parent protein migrates at ˜116 KDa on SDS-PAGE. An 89-KDa product is produced upon cleavage by caspase-3. Cortical neurons were subjected to 250 nM STS for 6 hours.\nas §1"}},
  "data": [
    {"smiles": "O=C1c2ccccc2C(=O)c2cc(S(=O)(=O)O)ccc21", "note": "[AQ2S, anthraquinone-2-sulfonic acid]", "values": [
      {"measurement": "heart cell viability after STS", "setting": "[1]", "result": "increased viability"},
      {"measurement": "targeting of zinc-finger domain in RBM5", "setting": "[2]; Farina et al. 2011", "result": "selective and potent target of the zinc-finger domain in pro-apoptotic RBM5 and inhibits its function"},
      {"measurement": "IC50", "setting": "[2]; read-out: IC50 of AQ2S to inhibit RBM5", "result": "~82", "unit": "µM"},
      {"measurement": "pAKT473", "setting": "[3]; 250 nM STS 6 hours, AQ2S", "result": "marginally increased STS-induced pAKT473 at the 6-hour time point, but did not reach statistical significance"},
      {"measurement": "pAKT473", "setting": "[3]; 250 nM STS 21 hours, 125 μM AQ2S", "result": "pAKT473 increased in the presence of AQ2S"},
      {"measurement": "AKT activity (pAKT473)", "setting": "[3]; 125 μM, 17 hours STS injury", "result": "significant elevation in AKT activity"},
      {"measurement": "ratio of pAKT473/AKT", "setting": "[3]; 125 μM, 17 hours STS injury", "result": "highest in the AQ2S treated group"},
      {"measurement": "AKT total", "setting": "[3]; non-injury, 125 μM", "result": "No effect on AKT total was observed"},
      {"measurement": "pAKT473", "setting": "[3]; non-injury, 125 μM, 4 hours", "result": "significant (but modest) rise in pAKT473"},
      {"measurement": "pAKT473", "setting": "[3]; non-injury, 125 μM, 24 hours", "result": "not significant at 24 hours"},
      {"measurement": "left hippocampal volume (% of uninjured right hippocampus)", "setting": "[4]; 5 μL 500 μM intracerebroventricular 15 minutes and 24 hours after CCI, 3 days", "result": "not significantly (N.S.) different from Sham animals"},
      {"measurement": "estimated final tissue AQ2S concentration", "setting": "[4]; 5 μL of 500 μM icv, extrapolated from total CSF volume in mice (35 μL), unit of the source corrected", "result": "~71", "unit": "µM"},
      {"measurement": "caspase-8 activity", "setting": "[5]", "result": "significantly reduced baseline and injury activity levels"},
      {"measurement": "activity of recombinant caspase-3", "setting": "[6]", "result": "significantly reduced the activity of recombinant caspase-3"},
      {"measurement": "89-KDa PARP cleavage product, western blot", "setting": "[7]; 250 nM STS 6 hours", "result": "significantly reduced the formation of the 89-KDa species"},
      {"measurement": "NF-κB p50 subunit protein levels", "setting": "[7]; 250 nM STS 17 hours", "result": "No change"},
      {"measurement": "NF-κB p65 subunit protein levels", "setting": "[7]; 250 nM STS 17 hours", "result": "increased"},
      {"measurement": "cleaved (activated) caspase-3, western blot", "setting": "[7]; 500 nM STS 6 hours", "result": "reduced"}
    ]}
  ]
}
